Patent publication US20180085373A1, “THERAPEUTIC AND/OR PROPHYLACTIC AGENT FOR LEWY BODY DISEASE” (KYOWA HAKKO KIRIN CO., LTD., priority 2015, published 2018)

Experiments:
Slc:ICR mice [1] = assay: Spontaneous alternation task test (Y-maze), evaluation of cognitive function in NAC61-95 α-synucleinopathy model; type: in vivo; details: NAC61-95-treated mice
Experimental: (§1) By reference to articles (Science, 338, p. 949 (2012); Behavioral Brain Research, 208, p. 274 (2010)), an animal model capable of confirming a therapeutic and/or prophylactic effect on α-synucleinopathy (for example, Lewy body disease, the Lewy body disease includes cognitive impairment in Parkinson's disease, diffuse Lewy body disease, dementia with Lewy bodies, movement disorder associated with Lewy body disease and the like) was prepared as follows.
(§2) The cognitive function was evaluated using a spontaneous alternation task. The spontaneous alternation task is known as an evaluation system of cognitive function utilizing properties of an animal to willingly explore a novel environment (Neuroscience and Biobehavioral Reviews 28, p. 497 (2004)). That is, if the animal remembers the arm into which it entered previously in an exploration in a Y-maze apparatus, the behavior of spontaneous entry into a different arm was expressed by an alternation behavior rate, and used as an index of cognitive function. The motor function was evaluated by analyzing gait function under natural walk conditions using a gait function/automatic gait analysis system.
(§3) NAC61-95 (custom, Sigma) was dissolved in PBS to prepare 4 μg/μL NAC61-95 solution.
Under pentobarbital (Somnopentyl, Kyoritsuseiyaku) (50 mg/kg, i.p.) anesthesia, 5 μL of NAC61-95 solution was injected using a Hamilton syringe (10 μL) equipped with a double needle (27G, needle length 3 mm) into the right lateral cerebral ventricle of Slc:ICR mice (male, Japan SLC) over about 1 minute, and stood for 1 minute to induce cognitive impairment and/or movement disorder. […]
Mice were brought into the experiment room from the previous day of test for habituation. […] Entry of all four limbs of a mouse into one arm was defined as entry into the arm, and the order of entry of the mouse into the arm was recorded. A behavior of successive entry into all three different arms was defined as spontaneous alternation behavior, and the percentage of alternation behavior was calculated by the following calculation formula. […]

Slc:ICR mice [2] = assay: Gait test (CatWalk XT), evaluation of motor function in NAC61-95 α-synucleinopathy model; type: in vivo; details: NAC61-95-treated mice
Experimental: as §1, §2, §3
Under pentobarbital (Somnopentyl, Kyoritsuseiyaku) (50 mg/kg, i.p.) anesthesia, 5 μL of NAC61-95 solution was injected using a Hamilton syringe (10 μL) equipped with a double needle (27G, needle length 3 mm) into the right lateral cerebral ventricle of Slc:ICR mice (male, Japan SLC) over about 1 minute, and stood for 1 minute to induce cognitive impairment and/or movement disorder.
As for a sham treatment group, under pentobarbital anesthesia, 5 μL of PBS was injected using a Hamilton syringe equipped with a double needle into the right lateral cerebral ventricle of Slc:ICR mice over about 1 minute, and stood for 1 minute.
A gait function/automatic gait analysis system (CatWalk XT, ver.9.1, Noldus) was used. The system consisted of a walkway with pressure-sensitive luminescent glass and a light source, a luminescent ceiling, a highly sensitive high-speed camera and an analysis software, and the gait was analyzed by digitizing the brightness of the light emitted by the pressure-sensitive luminescent glass in response to the pressure. The gait data was automatically recorded and analyzed by the analysis software only when a mouse moved straight forward without stopping in the predetermined area on the walkway.
The mice were brought into the experiment room with light off and habituated for not less than 1 hour. A mouse was placed in the apparatus, and allowed to walk freely until 6 running data were obtained for each individual. The first three running data amenable to analyze were taken up, and their mean was calculated.
At 60 minutes before the test, istradefylline (suspended in 0.5 w/v % aqueous MC solution, and prepared to 0.5 mL per 100 g body weight of a mouse on the administration day) was orally administered at a dose of 1.0 mg/kg, or a vehicle (0.5 w/v % aqueous MC solution) free of the test compound was orally administered at 0.5 mL per 100 g body weight of a mouse on the administration day.

[3] = 1.0 mg/kg orally 60 minutes before the test, mean±standard error

SMILES: CCn1c(=O)c2c(nc(/C=C/c3ccc(OC)c(OC)c3)n2C)n(CC)c1=O [istradefylline]
- cognitive impairment by NAC61-95 treatment (Slc:ICR mice [1]; 1.0 mg/kg orally): improved
- alternation behavior (%) (Slc:ICR mice [1]; [3]): 66.4 ± 1.4%
- alternation behavior as compared to the vehicle administration group (Slc:ICR mice [1]; 1.0 mg/kg orally, p<0.05, Aspin-Welch test): significantly high
- gait pattern (mean) AA (Slc:ICR mice [2]; AA: right forepaw→right hindpaw→left forepaw→left hindpaw, 1.0 mg/kg orally, mean±standard error): 4.3 ± 2.8
- gait pattern (mean) AB (Slc:ICR mice [2]; AB: right forepaw→left hindpaw→left forepaw→right hindpaw, 1.0 mg/kg orally, mean±standard error): 76.7 ± 7.1
- gait pattern (mean) CA (Slc:ICR mice [2]; CA: right forepaw→left forepaw→right hindpaw→left hindpaw, 1.0 mg/kg orally, mean±standard error): 10.3 ± 3.6
- gait pattern (mean) CB (Slc:ICR mice [2]; CB: right forepaw→left hindpaw→right hindpaw→left forepaw, 1.0 mg/kg orally, mean±standard error): 8.7 ± 4.3
- change in gait pattern CB (Slc:ICR mice [2]; 1.0 mg/kg orally): decreased
- improvement ratio, gait pattern CB (Slc:ICR mice [2]; 1.0 mg/kg orally): 100%
- improvement ratio, maximum brightness ratio of the left hindpaw (Slc:ICR mice [2]; 1.0 mg/kg orally): 111%
- movement disorder induced by NAC61-95 treatment (Slc:ICR mice [2]; 1.0 mg/kg orally): improved
- maximum brightness ratio, left forepaw (Slc:ICR mice [2]; [3]): 51.5 ± 1.8
- maximum brightness ratio, left hindpaw (Slc:ICR mice [2]; [3]): 65.3 ± 1.7
- maximum brightness ratio, right forepaw (Slc:ICR mice [2]; [3]): 52.5 ± 2.4
- maximum brightness ratio, right hindpaw (Slc:ICR mice [2]; [3]): 61.9 ± 2.4
- print area, left forepaw (Slc:ICR mice [2]; [3]): 0.35 ± 0.02
- print area, left hindpaw (Slc:ICR mice [2]; [3]): 0.38 ± 0.04
- print area, right forepaw (Slc:ICR mice [2]; [3]): 0.33 ± 0.03
- print area, right hindpaw (Slc:ICR mice [2]; [3]): 0.38 ± 0.04
- change in the maximum brightness ratio of the left hindpaw (Slc:ICR mice [2]; 1.0 mg/kg orally, p<0.05, Student's t-test): significant increase
- gait pattern (median) AA (Slc:ICR mice [2]; median, 1.0 mg/kg orally): 0.0
- gait pattern (median) AB (Slc:ICR mice [2]; median, 1.0 mg/kg orally): 84.6
- gait pattern (median) CA (Slc:ICR mice [2]; median, 1.0 mg/kg orally): 6.7
- gait pattern (median) CB (Slc:ICR mice [2]; median, 1.0 mg/kg orally): 0.0
